In PubChem BioAssay AID2060502 (Molecular Pharmacology Branch, DTP, NCI, 2025):

Test system: 885724-159-R-J1-PDC complex spheroid viability
Experiment: Anticancer human tumor 885724-159-R-J1-PDC patient-derived pancreatic adenocarcinoma cell line growth inhibition [GQUAD]
Details: for IC50: curve of first compound; for viability, T/C: stronger effect = lower value
How it was run: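 Multi-cell-type spheroids of tumor cells with HUVEC and mesenchymal stem cells, treated with drug combinations. Concentrations descend in half-log steps from near clinical Cmax, or from 10 microM where Cmax is unknown; viability read-out.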

[1] = second compound 0.0316 µM, first compound 0.000999 µM
[2] = second compound 0.0316 µM, first compound 0.00316 µM
[3] = second compound 0.0316 µM, first compound 0.00999 µM
[4] = second compound 0.0316 µM, first compound 0.0316 µM
[5] = second compound 0.0316 µM, first compound 0.0999 µM
[6] = second compound 0.0316 µM, first compound 0.316 µM
[7] = second compound 0.1 µM, first compound 0.000999 µM
[8] = second compound 0.1 µM, first compound 0.00316 µM
[9] = second compound 0.1 µM, first compound 0.00999 µM
[10] = second compound 0.1 µM, first compound 0.0316 µM
[11] = second compound 0.1 µM, first compound 0.0999 µM
[12] = second compound 0.1 µM, first compound 0.316 µM
[13] = second compound 0.316 µM, first compound 0.000999 µM
[14] = second compound 0.316 µM, first compound 0.00316 µM
[15] = second compound 0.316 µM, first compound 0.00999 µM
[16] = second compound 0.316 µM, first compound 0.0316 µM
[17] = second compound 0.316 µM, first compound 0.0999 µM
[18] = second compound 0.316 µM, first compound 0.316 µM
[19] = second compound 1 µM, first compound 0.000999 µM
[20] = second compound 1 µM, first compound 0.00316 µM
[21] = second compound 1 µM, first compound 0.00999 µM
[22] = second compound 1 µM, first compound 0.0316 µM
[23] = second compound 1 µM, first compound 0.0999 µM
[24] = second compound 1 µM, first compound 0.316 µM
[25] = second compound 3.16 µM, first compound 0.000999 µM
[26] = second compound 3.16 µM, first compound 0.00316 µM
[27] = second compound 3.16 µM, first compound 0.00999 µM
[28] = second compound 3.16 µM, first compound 0.0316 µM
[29] = second compound 3.16 µM, first compound 0.0999 µM
[30] = second compound 3.16 µM, first compound 0.316 µM
[31] = second compound 10 µM, first compound 0.000999 µM
[32] = second compound 10 µM, first compound 0.00316 µM
[33] = second compound 10 µM, first compound 0.00999 µM
[34] = second compound 10 µM, first compound 0.0316 µM
[35] = second compound 10 µM, first compound 0.0999 µM
[36] = second compound 10 µM, first compound 0.316 µM
[37] = second compound 0.0316 µM, first compound 0.1 µM
[38] = second compound 0.0316 µM, first compound 1 µM
[39] = second compound 0.0316 µM, first compound 3.16 µM
[40] = second compound 0.0316 µM, first compound 10 µM
[41] = second compound 0.1 µM, first compound 0.1 µM
[42] = second compound 0.1 µM, first compound 1 µM
[43] = second compound 0.1 µM, first compound 3.16 µM
[44] = second compound 0.1 µM, first compound 10 µM
[45] = second compound 0.316 µM, first compound 0.1 µM
[46] = second compound 0.316 µM, first compound 1 µM
[47] = second compound 0.316 µM, first compound 3.16 µM
[48] = second compound 0.316 µM, first compound 10 µM
[49] = second compound 1 µM, first compound 0.1 µM
[50] = second compound 1 µM, first compound 1 µM
[51] = second compound 1 µM, first compound 3.16 µM
[52] = second compound 1 µM, first compound 10 µM
[53] = second compound 3.16 µM, first compound 0.1 µM
[54] = second compound 3.16 µM, first compound 1 µM
[55] = second compound 3.16 µM, first compound 3.16 µM
[56] = second compound 3.16 µM, first compound 10 µM
[57] = second compound 10 µM, first compound 0.1 µM
[58] = second compound 10 µM, first compound 1 µM
[59] = second compound 10 µM, first compound 3.16 µM
[60] = second compound 10 µM, first compound 10 µM
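Further: spheroids exposed to agents for seven days before readout.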
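Wherever viability, T/C is given: percent of vehicle control viability where 100% = DMSO wells.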

## CCc1c2c(nc3ccc(O)cc13)-c1cc3c(c(=O)n1C2)COC(=O)[C@]3(O)CC + Cc1cnc(CNC(=O)c2c(=O)c3ccc(N4CCCN(C)CC4)nc3n3c2sc2ccccc23)cn1
Second compound 0.0316 µM
  IC50: 81.7 nM
Second compound 0.1 µM
  IC50: 41.8 nM
Second compound 0.316 µM
  IC50: 48.3 nM
Second compound 1 µM
  IC50: 57 nM
Second compound 3.16 µM
  IC50: 33 nM
Second compound 10 µM
  IC50: 32.6 nM
[1]
  viability, T/C: 101%
[2]
  viability, T/C: 97.1%
[3]
  viability, T/C: 75.1%
[4]
  viability, T/C: 66.2%
[5]
  viability, T/C: 54.1%
[6]
  viability, T/C: 9.27%
[7]
  viability, T/C: 114%
[8]
  viability, T/C: 90.5%
[9]
  viability, T/C: 68.8%
[10]
  viability, T/C: 60.4%
[11]
  viability, T/C: 45.2%
[12]
  viability, T/C: 7.81%
[13]
  viability, T/C: 93.2%
[14]
  viability, T/C: 82.7%
[15]
  viability, T/C: 72.2%
[16]
  viability, T/C: 54.4%
[17]
  viability, T/C: 42.4%
[18]
  viability, T/C: 4.89%
[19]
  viability, T/C: 77.2%
[20]
  viability, T/C: 78.6%
[21]
  viability, T/C: 63.8%
[22]
  viability, T/C: 61.3%
[23]
  viability, T/C: 41.7%
[24]
  viability, T/C: 0.87%
[25]
  viability, T/C: 73.9%
[26]
  viability, T/C: 72.1%
[27]
  viability, T/C: 57.8%
[28]
  viability, T/C: 48.3%
[29]
  viability, T/C: 36.7%
[30]
  viability, T/C: 0.45%
[31]
  viability, T/C: 66.5%
[32]
  viability, T/C: 69.6%
[33]
  viability, T/C: 53.6%
[34]
  viability, T/C: 54.8%
[35]
  viability, T/C: 30.7%
[36]
  viability, T/C: 0.45%

## COc1ccc([C@@H](O)c2cc(-c3ncnc4cc(N5CCOCC5)ccc34)c(F)cc2Cl)nn1 + Cc1cnc(CNC(=O)c2c(=O)c3ccc(N4CCCN(C)CC4)nc3n3c2sc2ccccc23)cn1
Second compound 0.0316 µM
  IC50: 5430 nM
Second compound 0.1 µM
  IC50: 6180 nM
Second compound 0.316 µM
  IC50: 4570 nM
Second compound 1 µM
  IC50: 4180 nM
Second compound 3.16 µM
  IC50: 2870 nM
Second compound 10 µM
  IC50: 2360 nM
[4]
  viability, T/C: 107%
[37]
  viability, T/C: 112%
[6]
  viability, T/C: 91.5%
[38]
  viability, T/C: 92.3%
[39]
  viability, T/C: 61.6%
[40]
  viability, T/C: 34.9%
[10]
  viability, T/C: 109%
[41]
  viability, T/C: 96.7%
[12]
  viability, T/C: 88.1%
[42]
  viability, T/C: 88.8%
[43]
  viability, T/C: 67.5%
[44]
  viability, T/C: 37%
[16]
  viability, T/C: 104%
[45]
  viability, T/C: 98.9%
[18]
  viability, T/C: 102%
[46]
  viability, T/C: 82.9%
[47]
  viability, T/C: 58.8%
[48]
  viability, T/C: 32.9%
[22]
  viability, T/C: 93.5%
[49]
  viability, T/C: 81.5%
[24]
  viability, T/C: 75.9%
[50]
  viability, T/C: 75.7%
[51]
  viability, T/C: 51.9%
[52]
  viability, T/C: 35.1%
[28]
  viability, T/C: 78.6%
[53]
  viability, T/C: 71.2%
[30]
  viability, T/C: 70.4%
[54]
  viability, T/C: 62.4%
[55]
  viability, T/C: 49.9%
[56]
  viability, T/C: 24.6%
[34]
  viability, T/C: 73.2%
[57]
  viability, T/C: 77.9%
[36]
  viability, T/C: 67.6%
[58]
  viability, T/C: 59.7%
[59]
  viability, T/C: 47.5%
[60]
  viability, T/C: 21.2%

## Cn1ncnc1[C@H]1c2n[nH]c(=O)c3cc(F)cc(c23)N[C@@H]1c1ccc(F)cc1 + CN(C)c1ccc(Nc2c3ccc(NC(=O)CCN4CCCC4)cc3nc3cc(NC(=O)CCN4CCCC4)ccc23)cc1
Second compound 0.0316 µM
  IC50: > 316 nM
Second compound 0.1 µM
  IC50: > 316 nM
Second compound 0.316 µM
  IC50: > 316 nM
Second compound 1 µM
  IC50: > 316 nM
Second compound 3.16 µM
  IC50: > 316 nM
Second compound 10 µM
  IC50: > 316 nM
[1]
  viability, T/C: 99%
[2]
  viability, T/C: 96.7%
[3]
  viability, T/C: 98.9%
[4]
  viability, T/C: 107%
[5]
  viability, T/C: 78.5%
[6]
  viability, T/C: 84.9%
[7]
  viability, T/C: 101%
[8]
  viability, T/C: 112%
[9]
  viability, T/C: 112%
[10]
  viability, T/C: 93.1%
[11]
  viability, T/C: 96%
[12]
  viability, T/C: 88.3%
[13]
  viability, T/C: 103%
[14]
  viability, T/C: 96.2%
[15]
  viability, T/C: 97.3%
[16]
  viability, T/C: 86%
[17]
  viability, T/C: 97.2%
[18]
  viability, T/C: 82.1%
[19]
  viability, T/C: 101%
[20]
  viability, T/C: 75.7%
[21]
  viability, T/C: 85.8%
[22]
  viability, T/C: 73.4%
[23]
  viability, T/C: 76.7%
[24]
  viability, T/C: 76.2%
[25]
  viability, T/C: 86.4%
[26]
  viability, T/C: 79%
[27]
  viability, T/C: 76%
[28]
  viability, T/C: 76.5%
[29]
  viability, T/C: 81.6%
[30]
  viability, T/C: 75.6%
[31]
  viability, T/C: 67.3%
[32]
  viability, T/C: 85.9%
[33]
  viability, T/C: 78%
[34]
  viability, T/C: 74.2%
[35]
  viability, T/C: 75.8%
[36]
  viability, T/C: 77%

## O=C(c1cc(Cc2n[nH]c(=O)c3ccccc23)ccc1F)N1CCN(C(=O)C2CC2)CC1 + Cc1cnc(CNC(=O)c2c(=O)c3ccc(N4CCCN(C)CC4)nc3n3c2sc2ccccc23)cn1
Second compound 0.0316 µM
  IC50: > 10000 nM
Second compound 0.1 µM
  IC50: > 10000 nM
Second compound 0.316 µM
  IC50: > 10000 nM
Second compound 1 µM
  IC50: > 10000 nM
Second compound 3.16 µM
  IC50: > 10000 nM
Second compound 10 µM
  IC50: > 10000 nM
[4]
  viability, T/C: 97.6%
[37]
  viability, T/C: 96.7%
[6]
  viability, T/C: 98.6%
[38]
  viability, T/C: 99.2%
[39]
  viability, T/C: 87.3%
[40]
  viability, T/C: 90.8%
[10]
  viability, T/C: 115%
[41]
  viability, T/C: 109%
[12]
  viability, T/C: 105%
[42]
  viability, T/C: 90.6%
[43]
  viability, T/C: 84.6%
[44]
  viability, T/C: 83.5%
[16]
  viability, T/C: 88%
[45]
  viability, T/C: 93.7%
[18]
  viability, T/C: 88.9%
[46]
  viability, T/C: 85.5%
[47]
  viability, T/C: 85.5%
[48]
  viability, T/C: 77%
[22]
  viability, T/C: 87.8%
[49]
  viability, T/C: 83.2%
[24]
  viability, T/C: 78.8%
[50]
  viability, T/C: 77.7%
[51]
  viability, T/C: 87%
[52]
  viability, T/C: 65.3%
[28]
  viability, T/C: 78.2%
[53]
  viability, T/C: 80.3%
[30]
  viability, T/C: 78.2%
[54]
  viability, T/C: 74%
[55]
  viability, T/C: 76.2%
[56]
  viability, T/C: 57.4%
[34]
  viability, T/C: 71.7%
[57]
  viability, T/C: 70.7%
[36]
  viability, T/C: 70.9%
[58]
  viability, T/C: 73.1%
[59]
  viability, T/C: 64.8%
[60]
  viability, T/C: 66.2%
